One data set deals with A549. Nature of the data set: Antiproliferative activity against human A549 cells assessed as inhibition of cell growth incubated for 48 hrs by MTT assay. Format: functional, cell-based. The note with it: A549, 48 h. Background: Tetrazolium assays rely on reduction of a dye to a coloured formazan, in cell work by metabolically active cells.
Another data set deals with HCT-116. Briefly: Antiproliferative activity against human HCT-116 cells assessed as inhibition of cell growth incubated for 48 hrs by MTT assay. The data set is classed as functional, cell-based. The note with it: HCT-116, 48 h.
Data set [1] relates to MCF7. Nature of the data set: Antiproliferative activity against human MCF7 cells assessed as inhibition of cell growth incubated for 48 hrs by MTT assay. Format: functional, cell-based. The note with it: MCF7, 48 h.
The test system of the next data set is NCI/ADR-RES. Briefly: Antiproliferative activity against human MCF7ADR cells assessed as inhibition of cell growth measured after 48 hrs by MTT assay. Format: functional, cell-based.
Data set [2] in a line: Cytotoxicity against human MCF-10A cells assessed as cell growth inhibition measured after 48 hrs by MTT assay. The data set is classed as toxicity, cell-based.
Data set [3] has as its system MCF7. Nature of the data set: Antitumor activity against human MCF7 cells xenografted in BALB/c nude mouse assessed as reduction in tumor weight at 10 mg/kg, ip administered once every two days for 3 weeks relative to control. Format: functional. More on the design: scale not given: the % may be the effect or the level left. In general terms: Xenograft models place foreign cells or tissue in a host animal.

A short description of data set [4]: Toxicity in BALB/c mouse xenografted with human MCF7 cells assessed as heart damage at 10 mg/kg, ip administered once every two days for 3 weeks by H and E staining based microscopic analysis. The note with it: in vivo, 504 h. Format: organism-based.
Data set [5] can be described thus: Toxicity in BALB/c mouse xenografted with human MCF7 cells assessed as liver damage at 10 mg/kg, ip administered once every two days for 3 weeks by H and E staining based microscopic analysis. The data set is classed as organism-based. The note with it: in vivo, 504 h.
Data set [6] in a line: Toxicity in BALB/c mouse xenografted with human MCF7 cells assessed as spleen damage at 10 mg/kg, ip administered once every two days for 3 weeks by H and E staining based microscopic analysis. The note with it: in vivo, 504 h. Format: organism-based.
A short description of data set [7]: Toxicity in BALB/c mouse xenografted with human MCF7 cells assessed as lung damage at 10 mg/kg, ip administered once every two days for 3 weeks by H and E staining based microscopic analysis. Format: organism-based. The note with it: in vivo, 504 h.
A short description of data set [8]: Toxicity in BALB/c mouse xenografted with human MCF7 cells assessed as kidney damage at 10 mg/kg, ip administered once every two days for 3 weeks by H and E staining based microscopic analysis. The data set is classed as organism-based. The note with it: in vivo, 504 h.

For the compound `O=C(OCCCOc1no[n+]([O-])c1S(=O)(=O)c1ccccc1)c1ccnc2ccccc12`, the half-maximal inhibitory concentration (IC50) (as a rule, the concentration that inhibits the measured activity by half) in the data set with A549 was more than 5 µM; with HCT-116, 4.37 µM; in the data set with MCF7 [1], 4.23 µM; in the data set on NCI/ADR-RES, 5.16 µM. Besides, the 50% inhibitory concentration (IC50) at 48 h in data set [2] came to 25.4 µM.

In the case of `O=C(OCCCCOc1no[n+]([O-])c1S(=O)(=O)c1ccccc1)c1ccnc2ccccc12`, the IC50 in the data set on A549 is more than 5 µM; in the data set on HCT-116 it was 4 µM; in the data set on MCF7 [1] it was 4.22 µM; with NCI/ADR-RES, 4.28 µM. For the same compound, the IC50 at 48 h in [2] is 32.2 µM.

On to `CC(=O)O[C@H]1C(=O)[C@@]2(C)[C@H]([C@H](OC(=O)c3ccccc3)[C@]3(O)C[C@H](OC(=O)[C@H](O)[C@@H](NC(=O)c4ccccc4)c4ccccc4)C(C)=C1C3(C)C)[C@]1(OC(C)=O)CO[C@@H]1C[C@@H]2O` [PACLITAXEL], for which the Activity is 61.18% in the data set with MCF7 [3]; “Non-Toxic” in data set [4]; “Non-Toxic” in data set [5]; “Non-Toxic” in data set [6]; “Non-Toxic” in data set [7]; “Non-Toxic” in [8].

As to `O=C(O)c1ccnc2ccccc12`, the concentration for half-maximal inhibition (IC50) with A549, in the data set with HCT-116, with MCF7 [1] and in the data set with NCI/ADR-RES was more than 50 µM throughout. Also, the IC50 at 48 h in [2] is more than 50 µM.

As for `COc1cccc2c1C(=O)c1c(O)c3c(c(O)c1C2=O)C[C@@](O)(C(=O)CO)C[C@@H]3O[C@H]1C[C@H](N)[C@H](O)[C@H](C)O1` [DOXORUBICIN], the figures for the IC50 in the data set with A549 and in the data set on HCT-116 were 0.57 µM and 0.72 µM, respectively.

`COc1cc(-c2cc(C(=O)OCCCOc3no[n+]([O-])c3S(=O)(=O)c3ccccc3)c3ccccc3n2)cc(OC)c1OC`: the IC50 with A549 stood at 2.3 µM; in the data set with HCT-116 it was 2.49 µM; in the data set with MCF7 [1] it was 1.66 µM; in the data set with NCI/ADR-RES it was 1.27 µM. Besides, in data set [2], the IC50 at 48 h was found to be 30.7 µM.

As for `O=C(OCCCCCCOc1no[n+]([O-])c1S(=O)(=O)c1ccccc1)c1ccnc2ccccc12`, the concentration for half-maximal inhibition (IC50) is more than 5 µM in the data set on A549, 4.97 µM with HCT-116, 4.22 µM in the data set on MCF7 [1] and 5.51 µM in the data set with NCI/ADR-RES. For the same compound, in data set [2], the IC50 at 48 h was found to be 34.1 µM.

For the compound `O=C(OCCCCCOc1no[n+]([O-])c1S(=O)(=O)c1ccccc1)c1ccnc2ccccc12`, the IC50 is more than 5 µM in the data set on A549, 4.95 µM with HCT-116, more than 5 µM in the data set with MCF7 [1] and 4.66 µM with NCI/ADR-RES. For the same compound, the concentration for half-maximal inhibition (IC50) at 48 h in data set [2] was determined as 4.21 µM.

In the case of `O=S(=O)(c1ccccc1)c1c(OCCCCCO)no[n+]1[O-]`, the half-maximal inhibitory concentration (IC50) in the data set on MCF7 [1] is 14.4 µM.

Consider `COc1cc(-c2cc(C(=O)O)c3ccccc3n2)cc(OC)c1OC`, for which, in the data set with MCF7 [1], the IC50 is more than 50 µM.

Regarding `O=C(OCCOc1no[n+]([O-])c1S(=O)(=O)c1ccccc1)c1ccnc2ccccc12`, the IC50 in the data set on A549 was 3.49 µM; in the data set with HCT-116, more than 5 µM; in the data set with MCF7 [1], 4.6 µM; in the data set with NCI/ADR-RES it was 3.32 µM. Also, in [2], the IC50 at 48 h is 23.2 µM.

With `COc1cc(-c2cc(C(=O)OCCCCOc3no[n+]([O-])c3S(=O)(=O)c3ccccc3)c3ccccc3n2)cc(OC)c1OC`, the half-inhibitory concentration (IC50) was determined as 2.41 µM in the data set on A549, 2.03 µM in the data set on HCT-116, 1.47 µM in the data set on MCF7 [1] and 1.09 µM with NCI/ADR-RES. Moreover, the half-maximal inhibitory concentration (IC50) at 48 h in [2] is 36.5 µM.

Regarding `COc1cc(-c2cc(C(=O)OCCOc3no[n+]([O-])c3S(=O)(=O)c3ccccc3)c3ccccc3n2)cc(OC)c1OC`, the concentration for half-maximal inhibition (IC50) with A549 was determined as 2.69 µM; with HCT-116 it was 3.79 µM; with MCF7 [1] it was 2.25 µM; in the data set with NCI/ADR-RES, 3.35 µM. Also, the 50% inhibitory concentration (IC50) at 48 h in [2] worked out at 16.3 µM.

With `COc1cc(-c2cc(C(=O)OCCCCCCOc3no[n+]([O-])c3S(=O)(=O)c3ccccc3)c3ccccc3n2)cc(OC)c1OC`, the IC50 in the data set with A549 turned out to be 2.71 µM; in the data set on HCT-116 it was 4.35 µM; in the data set with MCF7 [1], 3.16 µM; in the data set on NCI/ADR-RES, 3.32 µM. Besides, in data set [2], the IC50 at 48 h came out at 28.2 µM.

Values taken from ChEMBL document CHEMBL5329205, “Development of novel quinoline-NO donor hybrids inducing human breast cancer cells apoptosis via inhibition of topoisomerase I” (Bioorg Med Chem, 2023).
